According to US4789736A, “Complexes of technetium-99m with propylene amine oximes” (Amersham International plc, priority 1985, dated 1988):

Experiment: Animal biodistribution of Tc-99m complexes of ligands, no separation of stereoisomers (Example 22)
Type: in vivo, rats
Details: i.v. rats
Description: The ratio of diastereoisomers in the Tc-99m complexes used in this experiment is not known.
The results at 2 minutes and 1 hour p.i. are the mean of 3 animals.
The results at 2 hours p.i. are the mean of 2 animals.

With CCCC(=NO)C(C)NCCCNC(C)C(CCC)=NO (stereo not shown) [Compound 5, 6,10-Diaza-5,11-dimethylpentadecane-4,12-dione bis oxime] the “% id/organ, Blood” value (2 min pi, mean of 3 animals) was 10.5 % id/organ, the “% id/organ, Brain” value (2 min pi, mean of 3 animals) was 0.8 % id/organ and the “% id/organ, Liver” value (2 min pi, mean of 3 animals) was 18.0 % id/organ. The “% id/organ, Blood” value (1 hr pi, mean of 3 animals) was 2.8 % id/organ, the “% id/organ, Brain” value (1 hr pi, mean of 3 animals) was 0.6 % id/organ and the “% id/organ, Liver” value (1 hr pi, mean of 3 animals) was 12.1 % id/organ.
With CCC(=NO)C(C)NCC(C)(C)CNC(C)C(CC)=NO (stereo not shown) [Compound 6, 5,9-Diaza-4,7,7,10-tetramethyltridecane-3,11-dione bis oxime] the “% id/organ, Blood” value (2 min pi, mean of 3 animals) was 5.8 % id/organ, the “% id/organ, Brain” value (2 min pi, mean of 3 animals) was 1.2 % id/organ and the “% id/organ, Heart” value (2 min pi, mean of 3 animals) was 0.4 % id/organ. For the same compound, the “% id/organ, Liver” value (2 min pi, mean of 3 animals) was 19.6 % id/organ, the “% id/organ, Blood” value (2 hr pi, mean of 2 animals) was 2.6 % id/organ and the “% id/organ, Brain” value (2 hr pi, mean of 2 animals) was 0.4 % id/organ. For the same compound, the “% id/organ, Heart” value (2 hr pi, mean of 2 animals) was 0.2 % id/organ and the “% id/organ, Liver” value (2 hr pi, mean of 2 animals) was 13.5 % id/organ.
With CCC(CC)(CNC(C)C(C)=NO)CNC(C)C(C)=NO (stereo not shown) [Compound 7, 4,8-Diaza-6,6-diethyl-3,9-dimethylundecane-2,10-dione bis oxime] the “% id/organ, Blood” value (2 min pi, mean of 3 animals) was 7.4 % id/organ, the “% id/organ, Brain” value (2 min pi, mean of 3 animals) was 1.0 % id/organ and the “% id/organ, Liver” value (2 min pi, mean of 3 animals) was 20.6 % id/organ. The “% id/organ, Blood” value (1 hr pi, mean of 3 animals) was 3.3 % id/organ, the “% id/organ, Brain” value (1 hr pi, mean of 3 animals) was 0.5 % id/organ and the “% id/organ, Liver” value (1 hr pi, mean of 3 animals) was 36.5 % id/organ.
In the case of CC(=NO)C(NCCCNC(C(C)=NO)c1ccccc1)c1ccccc1 (stereo not shown) [Compound 10, 4,8-Diaza-3,9-diphenylundecane-2,10-dione bis oxime], the “% id/organ, Blood” value (2 min pi, mean of 3 animals) was 14.0 % id/organ, the “% id/organ, Brain” value (2 min pi, mean of 3 animals) was 0.4 % id/organ and the “% id/organ, Heart” value (2 min pi, mean of 3 animals) was 0.5 % id/organ. The “% id/organ, Liver” value (2 min pi, mean of 3 animals) was 32.9 % id/organ, the “% id/organ, Blood” value (2 hr pi, mean of 2 animals) was 2.7 % id/organ and the “% id/organ, Brain” value (2 hr pi, mean of 2 animals) was 0.6 % id/organ. For the same compound, the “% id/organ, Heart” value (2 hr pi, mean of 2 animals) was 0.3 % id/organ and the “% id/organ, Liver” value (2 hr pi, mean of 2 animals) was 16.9 % id/organ.
In the case of CC(=NO)C(C)NCC(C)CNC(C)C(C)=NO (stereo not shown) [Compound 11, 4,8-Diaza-3,6,9-trimethylundecane-2,10-dione bis oxime], the “% id/organ, Blood” value (2 min pi, mean of 3 animals) was 11.9 % id/organ, the “% id/organ, Brain” value (2 min pi, mean of 3 animals) was 1.3 % id/organ and the “% id/organ, Heart” value (2 min pi, mean of 3 animals) was 0.8 % id/organ. The “% id/organ, Liver” value (2 min pi, mean of 3 animals) was 12.3 % id/organ, the “% id/organ, Blood” value (1 hr pi, mean of 3 animals) was 4.7 % id/organ and the “% id/organ, Brain” value (1 hr pi, mean of 3 animals) was 1.0 % id/organ. For the same compound, the “% id/organ, Heart” value (1 hr pi, mean of 3 animals) was 0.4 % id/organ and the “% id/organ, Liver” value (1 hr pi, mean of 3 animals) was 10.2 % id/organ.
With CC(=NO)C(C)NC(C)CC(C)NC(C)C(C)=NO (stereo not shown) [Compound 12, 4,8-Diaza-3,5,7,9-tetramethylundecane-2,10 bis oxime] the “% id/organ, Blood” value (2 min pi, mean of 3 animals) was 8.6 % id/organ, the “% id/organ, Brain” value (2 min pi, mean of 3 animals) was 1.0 % id/organ and the “% id/organ, Heart” value (2 min pi, mean of 3 animals) was 0.5 % id/organ. For the same compound, the “% id/organ, Liver” value (2 min pi, mean of 3 animals) was 23.9 % id/organ, the “% id/organ, Blood” value (1 hr pi, mean of 3 animals) was 6.0 % id/organ and the “% id/organ, Brain” value (1 hr pi, mean of 3 animals) was 0.9 % id/organ. The “% id/organ, Heart” value (1 hr pi, mean of 3 animals) was 0.3 % id/organ and the “% id/organ, Liver” value (1 hr pi, mean of 3 animals) was 19.7 % id/organ.
With CC(C)C(=NO)C(C)NCCCNC(C)C(=NO)C(C)C (stereo not shown) [Compound 13, 5,9-Diaza-2,4,10,12-tetramethyltridecane-3,11-dione bis oxime] the “% id/organ, Blood” value (2 min pi, mean of 3 animals) was 15.2 % id/organ, the “% id/organ, Brain” value (2 min pi, mean of 3 animals) was 0.5 % id/organ and the “% id/organ, Heart” value (2 min pi, mean of 3 animals) was 0.6 % id/organ. The “% id/organ, Liver” value (2 min pi, mean of 3 animals) was 15.9 % id/organ, the “% id/organ, Blood” value (1 hr pi, mean of 3 animals) was 7.2 % id/organ and the “% id/organ, Brain” value (1 hr pi, mean of 3 animals) was 0.2 % id/organ. For the same compound, the “% id/organ, Heart” value (1 hr pi, mean of 3 animals) was 0.2 % id/organ and the “% id/organ, Liver” value (1 hr pi, mean of 3 animals) was 12.5 % id/organ.
